Laboratory results as given in patent US20230295200A1 (REGENTS OF THE UNIVERSITY OF MICHIGAN, priority 2022, published 2023).

What was measured:
STAT5A = molecular target: T1, STAT5A (Homo sapiens, UniProt P42229); assay: Fluorescence polarization (FP) binding assay, STAT5A; conditions: FP competition, 5 nM fluorescein-labeled tracer, 200 nM protein, PBS pH7.4
T1 sequence (P42229 1-794): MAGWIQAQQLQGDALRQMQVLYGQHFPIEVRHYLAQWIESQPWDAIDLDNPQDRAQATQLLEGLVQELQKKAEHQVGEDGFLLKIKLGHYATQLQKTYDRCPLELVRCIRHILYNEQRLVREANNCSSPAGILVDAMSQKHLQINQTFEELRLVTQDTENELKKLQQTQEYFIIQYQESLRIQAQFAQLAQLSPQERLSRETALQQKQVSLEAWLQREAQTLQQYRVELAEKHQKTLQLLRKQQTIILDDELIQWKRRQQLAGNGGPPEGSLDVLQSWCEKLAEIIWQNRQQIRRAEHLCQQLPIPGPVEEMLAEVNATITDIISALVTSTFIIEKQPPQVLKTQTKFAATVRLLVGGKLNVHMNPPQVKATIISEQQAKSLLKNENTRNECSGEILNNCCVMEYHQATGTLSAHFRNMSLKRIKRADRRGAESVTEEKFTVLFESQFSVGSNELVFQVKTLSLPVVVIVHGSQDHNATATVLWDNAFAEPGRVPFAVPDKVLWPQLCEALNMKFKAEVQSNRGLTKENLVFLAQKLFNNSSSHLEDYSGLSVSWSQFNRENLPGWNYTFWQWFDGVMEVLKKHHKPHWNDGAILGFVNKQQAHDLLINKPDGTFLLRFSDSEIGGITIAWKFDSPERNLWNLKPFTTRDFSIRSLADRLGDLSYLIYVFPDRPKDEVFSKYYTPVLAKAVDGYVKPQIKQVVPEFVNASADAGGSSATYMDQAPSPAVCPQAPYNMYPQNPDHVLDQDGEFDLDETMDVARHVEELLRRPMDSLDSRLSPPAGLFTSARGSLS
Summary of the method: (§1)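 Fluorescein-labelled tracer (5 nM) with 200 nM STAT5 and/or STAT6 protein in PBS pH 7.4, 0.01% BGG, 0.01% Tween-20, 2 mM DTT. Mixed 15 min, then equilibrated 1 h at room temperature; read by fluorescence polarization, constants from nonlinear curve fitting.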

STAT6 protein = molecular target: T2, STAT6 protein (Homo sapiens, UniProt P42226); assay: Fluorescence polarization (FP) binding assay, STAT6; conditions: FP competition, 5 nM fluorescein-labeled tracer, 200 nM protein, PBS pH7.4; read-out: Binding STAT6
T2 sequence (P42226 1-847): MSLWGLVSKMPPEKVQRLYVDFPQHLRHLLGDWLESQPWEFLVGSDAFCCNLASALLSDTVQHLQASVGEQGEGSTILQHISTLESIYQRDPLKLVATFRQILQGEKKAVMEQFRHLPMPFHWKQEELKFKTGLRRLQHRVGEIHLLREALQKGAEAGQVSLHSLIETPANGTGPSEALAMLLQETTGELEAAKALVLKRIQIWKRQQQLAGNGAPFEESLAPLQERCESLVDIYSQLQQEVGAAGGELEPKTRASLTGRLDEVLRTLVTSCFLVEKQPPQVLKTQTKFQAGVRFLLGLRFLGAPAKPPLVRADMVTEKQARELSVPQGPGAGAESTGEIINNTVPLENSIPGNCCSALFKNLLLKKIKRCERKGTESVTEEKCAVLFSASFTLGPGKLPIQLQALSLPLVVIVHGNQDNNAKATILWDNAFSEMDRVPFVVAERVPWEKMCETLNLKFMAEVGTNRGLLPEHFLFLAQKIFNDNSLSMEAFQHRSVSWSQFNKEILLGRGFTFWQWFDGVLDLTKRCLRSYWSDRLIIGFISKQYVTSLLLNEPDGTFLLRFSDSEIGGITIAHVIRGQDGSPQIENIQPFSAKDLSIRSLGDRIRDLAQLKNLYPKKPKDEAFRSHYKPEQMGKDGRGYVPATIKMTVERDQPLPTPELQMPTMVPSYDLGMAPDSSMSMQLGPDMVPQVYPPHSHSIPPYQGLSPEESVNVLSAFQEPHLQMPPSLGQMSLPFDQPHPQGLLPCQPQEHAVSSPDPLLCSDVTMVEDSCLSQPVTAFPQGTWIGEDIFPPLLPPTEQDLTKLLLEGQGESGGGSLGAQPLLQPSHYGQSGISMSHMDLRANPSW
Summary of the method: as §1

Row | Ki (STAT5A) [µM] | Ki (STAT6 protein) [µM] | SMILES
1 | > 10 | 1 to 10 | C#CC[C@H](NC(=O)c1cc2cc(C(F)(F)P(=O)(O)O)ccc2s1)C(=O)N1CCC[C@H]1C(=O)N1CCO[C@@H](c2ccccc2)C1 [Compound 153, (difluoro(2-(((S)-1-oxo-1-((S)-2-((S)-2-phenylmorpholine-4-carbonyl)pyrrolidin-1-yl)pent-4-yn-2-yl)carbamoyl)benzo[b]thiophen-5-yl)methyl)phosphonic acid]
2 | > 10 | 1 to 10 | O=C(N[C@H](C(=O)N1CCC[C@H]1C(=O)N1CCO[C@@H](c2ccccc2)C1)C1CC1)c1cc2cc(C(F)(F)P(=O)(O)O)ccc2s1 [Compound 154, ((2-(((S)-1-cyclopropyl-2-oxo-2-((S)-2-((S)-2-phenylmorpholine-4-carbonyl)pyrrolidin-1-yl)ethyl)carbamoyl)benzo[b]thiophen-5-yl)difluoromethyl)phosphonic acid]
3 | > 10 | > 10 | O=C(NC1(C(=O)N2CCC[C@H]2C(=O)N2CCO[C@@H](c3ccccc3)C2)CCC1)c1cc2cc(C(F)(F)P(=O)(O)O)ccc2s1 [Compound 155, (difluoro(2-((1-((S)-2-((S)-2-phenylmorpholine-4-carbonyl)pyrrolidine-1-carbonyl)cyclobutyl)carbamoyl)benzo [b]thiophen-5-yl)methyl)phosphonic acid]
4 | > 10 | 1 to 10 | CC(C)(O)[C@H](NC(=O)c1cc2cc(C(F)(F)P(=O)(O)O)ccc2s1)C(=O)N1CCC[C@H]1C(=O)N1CCO[C@@H](c2ccccc2)C1 [Compound 156, (difluoro(2-(((S)-3-hydroxy-3-methyl-1-oxo-1-((S)-2-((S)-2-phenylmorpholine-4-carbonyl)pyrrolidin-1-yl)butan-2-yl)carbamoyl)benzo[b]thiophen-5-yl)methyl)phosphonic acid]
5 | > 10 | 1 to 10 | CC(=O)N1CC[C@H]2CC[C@@H](C(=O)N3CCC[C@@H](c4ccccc4)C3)N2C(=O)[C@@H](NC(=O)c2cc3cc(C(F)(F)P(=O)(O)O)ccc3s2)C1 [Compound 157, ((2-(((5S,8S,10aR)-3-acetyl-6-oxo-8-((S)-3-phenylpiperidine-1-carbonyl)decahydropyrrolo[1,2-a][1,5]diazocin-5-yl)carbamoyl)benzo[b]thiophen-5-yl)difluoromethyl)phosphonic acid]
6 | > 10 | 0.1 to 1 | CC(=O)N1CC[C@H]2CC[C@@H](C(=O)N3CCC[C@H](c4ccccc4)C3)N2C(=O)[C@@H](NC(=O)c2cc3cc(C(F)(F)P(=O)(O)O)ccc3s2)C1 [Compound 158, ((2-(((5S,8S,10aR)-3-acetyl-6-oxo-8-((R)-3-phenylpiperidine-1-carbonyl)decahydropyrrolo[1,2-a][1,5]diazocin-5-yl)carbamoyl)benzo[b]thiophen-5-yl)difluoromethyl)phosphonic acid]
7 | > 10 | 1 to 10 | CC(=O)N1CC[C@H]2CC[C@@H](C(=O)N3CCOC(C)(c4ccc(F)cc4)C3)N2C(=O)[C@@H](NC(=O)c2cc3cc(C(F)(F)P(=O)(O)O)ccc3s2)C1 (stereo partly drawn) [Compound 159, ((2-(((5S,8S,10aR)-3-acetyl-8-(2-(4-fluorophenyl)-2-methylmorpholine-4-carbonyl)-6-oxodecahydropyrrolo[1,2-a][1,5]diazocin-5-yl)carbamoyl)benzo[b]thiophen-5-yl)difluoromethyl)phosphonic acid]
8 | > 10 | 1 to 10 | CC(=O)N1CC[C@H]2CC[C@@H](C(=O)N3CCOC(C)(c4ccc(Cl)cc4)C3)N2C(=O)[C@@H](NC(=O)c2cc3cc(C(F)(F)P(=O)(O)O)ccc3s2)C1 (stereo partly drawn) [Compound 160, ((2-(((5S,8S,10aR)-3-acetyl-8-(2-(4-chlorophenyl)-2-methylmorpholine-4-carbonyl)-6-oxodecahydropyrrolo[1,2-a][1,5]diazocin-5-yl)carbamoyl)benzo[b]thiophen-5-yl)difluoromethyl)phosphonic acid]
9 | > 10 | 0.1 to 1 | CC(=O)N1CC[C@H]2CC[C@@H](C(=O)N3CCOC(c4ccc(F)cc4)C3)N2C(=O)[C@@H](NC(=O)c2cc3cc(C(F)(F)P(=O)(O)O)ccc3s2)C1 (stereo partly drawn) [Compound 161, ((2-(((5S,8S,10aR)-3-acetyl-8-(2-(4-fluorophenyl)morpholine-4-carbonyl)-6-oxodecahydropyrrolo[1,2-a][1,5]diazocin-5-yl)carbamoyl)benzo[b]thiophen-5-yl)difluoromethyl)phosphonic acid]
10 | > 10 | 0.1 to 1 | CC(=O)N1CC[C@H]2CC[C@@H](C(=O)N3CCOC(c4cccc(Cl)c4)C3)N2C(=O)[C@@H](NC(=O)c2cc3cc(C(F)(F)P(=O)(O)O)ccc3s2)C1 (stereo partly drawn) [Compound 162, ((2-(((5S,8S,10aR)-3-acetyl-8-(2-(3-chlorophenyl)morpholine-4-carbonyl)-6-oxodecahydropyrrolo[1,2-a][1,5]diazocin-5-yl)carbamoyl)benzo[b]thiophen-5-yl)difluoromethyl)phosphonic acid]
11 | > 10 | 1 to 10 | CC(=O)N1CC[C@H]2CC[C@@H](C(=O)N3CCOC(c4cc(F)c(Cl)cc4Cl)C3)N2C(=O)[C@@H](NC(=O)c2cc3cc(C(F)(F)P(=O)(O)O)ccc3s2)C1 (stereo partly drawn) [Compound 163, ((2-(((5S,8S,10aR)-3-acetyl-8-(2-(2,4-dichloro-5-fluorophenyl)morpholine-4-carbonyl)-6-oxodecahydropyrrolo[1,2-a][1,5]diazocin-5-yl)carbamoyl)benzo[b]thiophen-5-yl)difluoromethyl)phosphonic acid]
12 | > 10 | 1 to 10 | CC(=O)N1CC[C@H]2CC[C@@H](C(=O)N3CCOC(c4ccccc4C)C3)N2C(=O)[C@@H](NC(=O)c2cc3cc(C(F)(F)P(=O)(O)O)ccc3s2)C1 (stereo partly drawn) [Compound 164, ((2-(((5S,8S,10aR)-3-acetyl-6-oxo-8-(2-(o-tolyl)morpholine-4-carbonyl)decahydropyrrolo[1,2-a][1,5]diazocin-5-yl)carbamoyl)benzo[b]thiophen-5-yl)difluoromethyl)phosphonic acid]
13 | 1 to 10 | 1 to 10 | CC(=O)N1CC[C@H]2CC[C@@H](C(=O)Nc3ncc(-c4ccccc4)s3)N2C(=O)[C@@H](NC(=O)c2cc3cc(C(F)(F)P(=O)(O)O)ccc3s2)C1 [Compound 165, ((2-(((5S,8S,10aR)-3-acetyl-6-oxo-8-((5-phenylthiazol-2-yl)carbamoyl)decahydropyrrolo[1,2-a][1,5]diazocin-5-yl)carbamoyl)benzo[b]thiophen-5-yl)difluoromethyl)phosphonic acid]
14 | > 10 | 1 to 10 | CC(=O)N1CCN(C(=O)[C@@H]2CCCN2C(=O)[C@@H](NC(=O)c2cc3cc(C(F)(F)P(=O)(O)O)ccc3s2)C(C)(C)C)C[C@H]1c1ccccc1 [Compound 166, ((2-(((S)-1-((S)-2-((R)-4-acetyl-3-phenylpiperazine-1-carbonyl)pyrrolidin-1-yl)-3,3-dimethyl-1-oxobutan-2-yl)carbamoyl)benzo[b]thiophen-5-yl)difluoromethyl)phosphonic acid]
15 | > 10 | 1 to 10 | CC(=O)N1CCN(C(=O)[C@@H]2CCCN2C(=O)[C@@H](NC(=O)c2cc3cc(C(F)(F)P(=O)(O)O)ccc3s2)C(C)(C)C)C[C@@H]1c1ccccc1 [Compound 167, ((2-(((S)-1-((S)-2-((S)-4-acetyl-3-phenylpiperazine-1-carbonyl)pyrrolidin-1-yl)-3,3-dimethyl-1-oxobutan-2-yl)carbamoyl)benzo[b]thiophen-5-yl)difluoromethyl)phosphonic acid]
